ChEMBL document CHEMBL5104172, “Design, synthesis, and antibacterial activity of derivatives of Tryptophanyl-tRNA synthetase inhibitor indolmycin” (Eur J Med Chem, 2022)
In brackets after ≈: the same amount, converted by molar mass.

Tests used:
Format in all cases: functional
Staphylococcus aureus [1] = test: Antibacterial activity against methicillin-sensitive Staphylococcus aureus MSSA17-3 measured by liquid dilution method
Staphylococcus aureus [2] = test: Antibacterial activity against vancomycin-intermediate Staphylococcus aureus ATCC 700699 measured by liquid dilution method
Enterococcus faecium [3] = test: Antibacterial activity against Enterococcus faecium EFM17-1 measured by liquid dilution method
Enterococcus faecalis [4] = test: Antibacterial activity against Enterococcus faecalis ATCC 29212 measured by liquid dilution method
[5] = tested on: Staphylococcus epidermidis; test: Antibacterial activity against methicillin-sensitive Staphylococcus epidermidis MSSE17-3 measured by liquid dilution method
[6] = tested on: Staphylococcus epidermidis; test: Antibacterial activity against methicillin-sensitive Staphylococcus epidermidis MSSE17-1 measured by liquid dilution method
Staphylococcus aureus [7] = test: Antibacterial activity against methicillin-resistant Staphylococcus aureus MRSA17-3 measured by liquid dilution method
Staphylococcus aureus [8] = test: Antibacterial activity against methicillin-resistant Staphylococcus aureus ATCC 33591 measured by liquid dilution method
[9] = tested on: Staphylococcus epidermidis; test: Antibacterial activity against methicillin-resistant Staphylococcus epidermidis MRSE17-2 measured by liquid dilution method
Staphylococcus aureus [10] = test: Antibacterial activity against vancomycin-intermediate Staphylococcus aureus ATCC 700788 measured by liquid dilution method
[11] = tested on: Staphylococcus epidermidis; test: Antibacterial activity against methicillin-resistant Staphylococcus epidermidis MRSE17-6 measured by liquid dilution method
[12] = tested on: Staphylococcus epidermidis; test: Antibacterial activity against methicillin-resistant Staphylococcus epidermidis MRSE17-4 measured by liquid dilution method
Staphylococcus aureus [13] = test: Antibacterial activity against Staphylococcus aureus ATCC 29213 measured by liquid dilution method
Staphylococcus aureus [14] = test: Antibacterial activity against methicillin-sensitive Staphylococcus aureus MSSA17-1 measured by liquid dilution method
Staphylococcus aureus [15] = test: Antibacterial activity against methicillin-resistant Staphylococcus aureus ATCC 43300 measured by liquid dilution method
[16] = tested on: Staphylococcus epidermidis; test: Antibacterial activity against methicillin-resistant Staphylococcus epidermidis MRSE17-3 measured by liquid dilution method
Staphylococcus aureus [17] = test: Antibacterial activity against methicillin-resistant Staphylococcus aureus MRSA17-1 measured by liquid dilution method
Enterococcus faecalis [18] = test: Antibacterial activity against Enterococcus faecalis EFA17-1 measured by liquid dilution method
Staphylococcus aureus [19] = test: Antibacterial activity against methicillin-resistant Staphylococcus aureus MRSA17-2 measured by liquid dilution method
Enterococcus faecium [20] = test: Antibacterial activity against Enterococcus faecium EFM17-2 measured by liquid dilution method
[21] = tested on: Staphylococcus epidermidis; test: Antibacterial activity against methicillin-sensitive Staphylococcus epidermidis MSSE17-2 measured by liquid dilution method
Staphylococcus aureus [22] = test: Antibacterial activity against methicillin-sensitive Staphylococcus aureus MSSA17-2 measured by liquid dilution method
[23] = tested on: Staphylococcus epidermidis; test: Antibacterial activity against methicillin-resistant Staphylococcus epidermidis MRSE17-1 measured by liquid dilution method
Staphylococcus aureus [24] = test: Antibacterial activity against methicillin-resistant Staphylococcus aureus MRSA17-5 measured by liquid dilution method
Staphylococcus aureus [25] = test: Antibacterial activity against methicillin-resistant Staphylococcus aureus MRSA17-6 measured by liquid dilution method

Row | SMILES | MIC (Staphylococcus aureus [1]) [µg/mL] | MIC (Staphylococcus aureus [2]) [µg/mL] | MIC (Enterococcus faecium [3]) [µg/mL] | MIC (Enterococcus faecalis [4]) [µg/mL] | MIC [5] [µg/mL] | MIC [6] [µg/mL] | MIC (Staphylococcus aureus [7]) [µg/mL] | MIC (Staphylococcus aureus [8]) [µg/mL] | MIC [9] [µg/mL] | MIC (Staphylococcus aureus [10]) [µg/mL] | MIC [11] [µg/mL] | MIC [12] [µg/mL] | MIC (Staphylococcus aureus [13]) [µg/mL] | MIC (Staphylococcus aureus [14]) [µg/mL] | MIC (Staphylococcus aureus [15]) [µg/mL] | MIC [16] [µg/mL] | MIC (Staphylococcus aureus [17]) [µg/mL] | MIC (Enterococcus faecalis [18]) [µg/mL] | MIC (Staphylococcus aureus [19]) [µg/mL] | MIC (Enterococcus faecium [20]) [µg/mL] | other results
1 | CNC1=NC(=O)[C@H]([C@H](C)c2c[nH]c3c(F)cccc23)O1 | 0.5 (≈ 1.82 µM) | 2 (≈ 7.27 µM) | 2 (≈ 7.27 µM) | 2 (≈ 7.27 µM) | 4 (≈ 14.5 µM) | 2 (≈ 7.27 µM) | 1 (≈ 3.63 µM) | 8 (≈ 29.1 µM) | 0.25 (≈ 0.908 µM) | 4 (≈ 14.5 µM) | 0.5 (≈ 1.82 µM) | 0.5 (≈ 1.82 µM) | 8 (≈ 29.1 µM) | 1 (≈ 3.63 µM) | 4 (≈ 14.5 µM) | 0.5 (≈ 1.82 µM) | 0.5 (≈ 1.82 µM) | 2 (≈ 7.27 µM) | 0.5 (≈ 1.82 µM) | 4 (≈ 14.5 µM) | MIC [21]: 4 µg/mL (≈ 14.5 µM); MIC (Staphylococcus aureus [22]): 0.5 µg/mL (≈ 1.82 µM); MIC [23]: 0.5 µg/mL (≈ 1.82 µM); MIC (Staphylococcus aureus [24]): 1 µg/mL (≈ 3.63 µM); MIC (Staphylococcus aureus [25]): 1 µg/mL (≈ 3.63 µM)
2 | CNC1=NC(=O)[C@H]([C@H](C)c2c[nH]c3cccc(Br)c23)O1 | 2 (≈ 5.95 µM) | 1 (≈ 2.97 µM) | > 128 | > 128 | 1 (≈ 2.97 µM) | 1 (≈ 2.97 µM) | 1 (≈ 2.97 µM) | 4 (≈ 11.9 µM) | 2 (≈ 5.95 µM) | 2 (≈ 5.95 µM) | 2 (≈ 5.95 µM) | 2 (≈ 5.95 µM) | 4 (≈ 11.9 µM) | 2 (≈ 5.95 µM) | 2 (≈ 5.95 µM) | 0.5 (≈ 1.49 µM) | 2 (≈ 5.95 µM) | > 128 | 2 (≈ 5.95 µM) | > 128 | MIC [21]: 1 µg/mL (≈ 2.97 µM); MIC (Staphylococcus aureus [22]): 4 µg/mL (≈ 11.9 µM); MIC [23]: 2 µg/mL (≈ 5.95 µM); MIC (Staphylococcus aureus [24]): 2 µg/mL (≈ 5.95 µM); MIC (Staphylococcus aureus [25]): 2 µg/mL (≈ 5.95 µM)
3 | CNC1=NC(=O)[C@@H]([C@@H](C)c2c[nH]c3cc(F)ccc23)O1 | > 128 | > 128 | > 128 | > 128 | > 128 | > 128 | > 128 | > 128 | > 128 | > 128 | > 128 | > 128 | > 128 | > 128 | > 128 | > 128 | > 128 | > 128 | > 128 | > 128 | MIC [21]: > 128 µg/mL; MIC (Staphylococcus aureus [22]): > 128 µg/mL; MIC [23]: > 128 µg/mL; MIC (Staphylococcus aureus [24]): > 128 µg/mL; MIC (Staphylococcus aureus [25]): > 128 µg/mL
4 | CNC1=NC(=O)[C@@H]([C@@H](C)c2c[nH]c3cccc(Cl)c23)O1 | 64 (≈ 219 µM) | > 128 | > 128 | > 128 | > 128 | > 128 | 64 (≈ 219 µM) | 64 (≈ 219 µM) | 128 (≈ 439 µM) | 128 (≈ 439 µM) | 64 (≈ 219 µM) | 64 (≈ 219 µM) | 64 (≈ 219 µM) | 64 (≈ 219 µM) | 64 (≈ 219 µM) | > 128 | 64 (≈ 219 µM) | > 128 | 64 (≈ 219 µM) | > 128 | MIC [21]: > 128 µg/mL; MIC (Staphylococcus aureus [22]): 64 µg/mL (≈ 219 µM); MIC [23]: 128 µg/mL (≈ 439 µM); MIC (Staphylococcus aureus [24]): 64 µg/mL (≈ 219 µM); MIC (Staphylococcus aureus [25]): 64 µg/mL (≈ 219 µM)
